The values below come from patent US11618746B2, “Inhibitors of APOL1 and methods of using same” (Vertex Pharmaceuticals Incorporated, priority 2018, dated 2023).

For orientation: IC50 means the midpoint of a concentration-inhibition curve.

Molecules are shown by their SMILES. Some results are limits rather than exact numbers.

The assay deals with T1, APOL1 G1 Protein (Homo sapiens, UniProt O14791, I384M/S342G).
T1 sequence (O14791 28-398 S342G/I384M): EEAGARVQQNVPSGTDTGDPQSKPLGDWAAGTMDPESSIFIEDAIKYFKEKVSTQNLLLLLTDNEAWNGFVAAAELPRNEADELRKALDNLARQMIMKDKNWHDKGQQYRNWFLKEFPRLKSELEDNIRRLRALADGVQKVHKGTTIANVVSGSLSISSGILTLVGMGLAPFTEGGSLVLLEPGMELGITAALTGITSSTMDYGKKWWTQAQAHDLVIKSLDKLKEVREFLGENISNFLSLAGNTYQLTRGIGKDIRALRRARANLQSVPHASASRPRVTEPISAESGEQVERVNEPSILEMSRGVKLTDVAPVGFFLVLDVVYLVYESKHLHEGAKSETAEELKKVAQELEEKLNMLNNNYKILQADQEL
Nature of the assay: Trypanosoma brucei brucei lysis assay using APOL1 recombinant protein (AlamarBlue viability readout). It counts as cell-based. The settings on record: Trypanosoma brucei brucei (Lister 427 VSG 221 bloodstream form) lysis by 0.05 μg/mL recombinant APOL1 G1, 16 hrs. The text has this: Trypanosoma brucei brucei is a blood stream parasite to which human, gorillas and baboon are immune due to the presence of the APOL1 protein in their HDL particles. The protein is uptaken by the parasite via the TbHpHb receptor located in its flagellar pocket and is bonded by the Hpr protein contained in the HDL particles which triggers the receptor endocytosis by the parasite.
Following endocytosis, the formed vesicle containing the HDL particle matures from early to late endosome, and subsequently to lysosome. The concomitant pH change in the lumen of the vesicle triggers the insertion of the APOL1 protein into the membrane of the late endosome/lysosome and hereby triggers lysosomal membrane premeabilisation and as a further downstream event, trypanosome lysis. Trypanosoma brucei brucei is sensitive to lysis by all three APOL1 variants (G0, G1, and G2).
The Trypanosoma brucei brucei lysis assay is a lysis assay of the parasite using recombinant APOL1 protein variant followed by a fluorescent detection method of viability by the addition of AlamarBlue reagent to the assay well, a general metabolic redox indicator (AlamarBlue assay).
Briefly, the AlamarBlue active compound, the resazurin, a blue, water soluble, non-toxic and cell permeable molecule, which can be followed by absorbance, is reduced by various metabolic pathways into resorufin, a red compound which can be followed by either absorbance or fluorescence. The assay allows the calculation of the percent viability (percent of living Trypanosomes remaining in each well) at the end of a lysis relative to the untreated condition by interpolation of fluorescent values (FLU) on a standard curve with a known amount of seeded trypanosome/well.
Trypanosoma brucei brucei (ATCC, Cat. No. PRA-382) • Lister 427 VSG 221 bloodstream form.
Thaw/Expansion Media (ATCC Medium 2834 Modified HMI-9 Medium)
Equipment • E1-Clip Tip pipette 12 channel adjustable 2-125 μL, Cat. No. 4672070BT • ThermoFisher MultiDrop 384, Cat. No. 5840300 • Multidrop • Agilent Bravo, Cat. No. G5409A • Bravo • SpectraMax M5
Trypanosoma brucei brucei Culture
Step 2, Day 4 • Centrifuge at 800×g for 5 minutes at room temperature. • Resuspend in 1 mL media. • Make a 1:25 fold dilution (10 μL/240 μL media). • Count on a hemocytometer (after adding parasites). • Let sit for 1-2 minutes for the parasites to settle. • Count should be approximately 100 viable motile parasites/16 grid or approximately 25×10^6 parasites/flask. • Passage the parasites by adding 1×10^6 parasites/T75 flask in 20 mL media. • Passage the parasites by adding 2.33×10^6 parasites/T175 flask in 46.6 mL media. • For every T75 flask should make enough for approximately 1.5×384 well assay plates. • For every T175 flask should make enough for approximately 3.8×384 well assay plates.
Step 3. Day 6 • Centrifuge at 800×g for 5 minutes. • Resuspend in 3 mL assay media (No phenol red, no FBS) per 75 starting flask. • Resuspend in 7 mL assay media (No phenol red, no FBS) per 175 flask • Make a 1:25 fold dilution. • Count by hemocytometer. • Every T75 flask set up should have approximately 75×10^6 parasites/flask (verify doubling time=8.7 hrs 1 hr). • Every T175 flask set up should have approximately 175×10^6 parasites/flask (verify doubling time=8.7 hrs±1 hr). • Require 46×10^6 parasites per 384 well plate (at 120,000 parasites per well).
Step 2, Day 2 • Centrifuge at 800×g for 5 minutes at room temperature. • Resuspend in 1 mL media. • Make a 1:25 fold dilution (10 L/240 μL media). • Let sit for 1-2 minutes for the parasites to settle. • Count should be approximately 100 viable motile parasites/16 grid or approximately 8×10^6 parasites per flask. • Passage the parasites by adding 1.25×10^6 parasites per T75 flask in 20 mL media. • For every T75 flask set up should have approximately 1.5×384 well assay plates. • For every T175 flask setup should have approximately 3.8×384 well assay plates. […]
(In general: The colour change of resazurin is a common sign of viable cells or microbes.)
For `CC1C[C@H](NC(=O)CCc2c(-c3ccc(F)cc3)[nH]c3c(F)cc(F)cc23)C(=O)N1` (mixture of isomers) [Compound 6], the half-inhibitory concentration (IC50) lay in the range of 0.25 to 1 µM.
In the case of `CC1(NC(=O)CCc2c(-c3ccc(F)cc3)[nH]c3c(F)cc(F)cc23)CCNC1=O` (racemic) [Compound 14], the IC50 was under 0.25 µM.
For the compound `O=C(CCc1c(-c2ccc(F)cc2)[nH]c2c(F)cc(F)cc12)N[C@H]1CCNC1=O` [Compound 3, 3-[5,7-difluoro-2-(4-fluorophenyl)-1H-indol-3-yl]-N-[(3S)-2-oxopyrrolidin-3-yl]propanamide], the IC50 is under 0.25 µM.
The value for `O=C1C[C@H](NC(=O)CCc2c(-c3ccc(F)cc3)[nH]c3c(F)cc(F)cc23)C(=O)N1` [Compound 5] was 0.25 to 1 µM.
Take `O=C(CCc1c(-c2ccc(F)cc2)[nH]c2c(F)cc(F)cc12)N[C@H]1C[C@@H](CO)NC1=O` [Compound 7]: the IC50 was over 1 µM.
For `O=C(CCc1c(-c2ccc(F)cc2)[nH]c2c(F)cc(F)cc12)N[C@H]1C[C@H](CO)NC1=O` [Compound 8], the IC50 was over 1 µM.
The value for `O=C(CCc1c(-c2ccc(F)cc2)[nH]c2c(F)cc(F)cc12)N[C@@H]1CCNC1=O` [Compound 13] was under 0.25 µM; that for `O=C1C[C@@H](NC(=O)CCc2c(-c3ccc(F)cc3)[nH]c3c(F)cc(F)cc23)C(=O)N1` [Compound 16] was 0.25 to 1 µM; that for `N#Cc1ccc(-c2[nH]c3c(F)cc(F)cc3c2CCC(=O)N[C@H]2CCNC2=O)cc1` [Compound 20, 3-[2-(4-cyanophenyl)-5,7-difluoro-1H-indol-3-yl]-N-[(3S)-2-oxopyrrolidin-3-yl]propanamide] was under 0.25 µM.
As to `O=C(CCc1c(-c2ccc(OC(F)F)cc2)[nH]c2c(F)cc(F)cc12)N[C@H]1CCNC1=O` [Compound 21], the 50% inhibitory concentration (IC50) is under 0.25 µM.
The value for `O=C(CCc1c(-c2ccccc2)[nH]c2c(F)cc(F)cc12)N[C@@H]1C(=O)NC[C@H]1O` [Compound 26] was under 0.25 µM.
The value for `O=C(CCc1c(-c2ccc(F)cc2)[nH]c2c(F)cc(Br)cc12)N[C@H]1CCNC1=O` [Compound 27] was under 0.25 µM; that for `N#Cc1cc(F)c2[nH]c(-c3ccc(F)cc3)c(CCC(=O)N[C@H]3CCNC3=O)c2c1` [Compound 28] was over 1 µM; that for `Cc1cc(F)c2[nH]c(-c3ccc(F)cc3)c(CCC(=O)N[C@@H]3C(=O)NC[C@H]3O)c2c1` [Compound 29] was under 0.25 µM.
The value for `O=C(CCc1c(-c2ccc(F)cc2)[nH]c2c(F)cc(Cl)cc12)N[C@@H]1C(=O)NC[C@H]1O` [Compound 30] was under 0.25 µM.
As to `O=C(CCc1c(-c2ccc(F)cc2)[nH]c2c(Cl)cc(F)cc12)N[C@@H]1C(=O)NC[C@H]1O` [Compound 36], the IC50 was under 0.25 µM.
The value for `Cc1cc(F)cc2c(CCC(=O)N[C@@H]3C(=O)NC[C@H]3O)c(-c3ccc(F)cc3)[nH]c12` [Compound 37] was under 0.25 µM; that for `COc1cc(F)cc2c(CCC(=O)N[C@@H]3C(=O)NC[C@H]3O)c(-c3ccc(F)cc3)[nH]c12` [Compound 40] was under 0.25 µM; that for `N#Cc1cc(F)cc2c(CCC(=O)N[C@@H]3C(=O)NC[C@H]3O)c(-c3ccc(F)cc3)[nH]c12` [Compound 42] was under 0.25 µM.
The value for `Cc1ccc2[nH]c(-c3ccc(Br)cc3)c(CCC(=O)N[C@H]3CCNC3=O)c2c1` [Compound 43, 3-[2-(4-bromophenyl)-5-methyl-1H-indol-3-yl]-N-[(3S)-2-oxopyrrolidin-3-yl]propanamide] was under 0.25 µM; that for `O=C(CCc1c(-c2ccccc2)[nH]c2ccc(Cl)cc12)N[C@@H]1C(=O)NC[C@H]1O` [Compound 44, 3-(5-chloro-2-phenyl-1H-indol-3-yl)-N-[(3S,4R)-4-hydroxy-2-oxo-pyrrolidin-3-yl]propanamide] was under 0.25 µM.
The value for `O=C(CCc1c(-c2ccc(F)cc2)[nH]c2ccc(F)cc12)N[C@@H]1C(=O)NC[C@H]1O` [Compound 46] was under 0.25 µM; that for `O=C(CCc1c(-c2ccc(F)cc2)[nH]c2ccc(F)cc12)N[C@H]1CCNC1=O` [Compound 47] was under 0.25 µM.
As for `O=C(CCc1c(-c2ccc(F)cc2)[nH]c2ccc(F)cc12)NC1CCNC1=O` (centres unmarked) [Compound 48], the IC50 was under 0.25 µM.
The value for `O=C(CCc1c(-c2ccc(F)cc2)[nH]c2ccc(F)cc12)N[C@@H]1CCNC1=O` [Compound 49] was 0.25 to 1 µM; that for `CN(C(=O)CCc1c(-c2ccc(F)cc2)[nH]c2ccc(F)cc12)C1CCNC1=O` (centres unmarked) [Compound 50] was 0.25 to 1 µM.
Regarding `O=C(CCc1c(-c2ccccc2)[nH]c2ccc(F)cc12)N[C@@H]1C(=O)NC[C@H]1O` [Compound 51], the concentration for half-maximal inhibition (IC50) is under 0.25 µM.
The value for `O=C(CCc1c(-c2ccccc2)[nH]c2ccc(F)cc12)N[C@H]1CCNC1=O` [Compound 52] was under 0.25 µM.
On to `O=C(CCc1c(-c2ccc(F)cc2)[nH]c2ccc(OCc3ccccc3)cc12)N[C@H]1CCNC1=O` [Compound 54, 3-[5-benzyloxy-2-(4-fluorophenyl)-1H-indol-3-yl]-N-[(3S)-2-oxopyrrolidin-3-yl]propanamide], for which the 50% inhibitory concentration (IC50) was in the range of 0.25 to 1 µM.
The value for `O=C(CCc1c(-c2ccc(F)cc2)[nH]c2ccc(O)cc12)N[C@H]1CCNC1=O` [Compound 55, 3-[2-(4-fluorophenyl)-5-hydroxy-1H-indol-3-yl]-N-[(3S)-2-oxopyrrolidin-3-yl]propanamide] was over 1 µM; that for `O=C(CCc1c(-c2ccc(F)cc2)[nH]c2c(F)c(F)ccc12)N[C@@H]1C(=O)NC[C@H]1O` [Compound 58] was under 0.25 µM; that for `O=C(CCc1c(-c2ccccc2)[nH]c2c(F)c(F)ccc12)N[C@@H]1C(=O)NC[C@H]1O` [Compound 59] was under 0.25 µM.
The value for `O=C(CCc1c(-c2ccccc2)[nH]c2c(F)cccc12)N[C@@H]1C(=O)NC[C@H]1O` [Compound 61] was under 0.25 µM; that for `O=C(CCc1c(-c2ccccc2)[nH]c2c(Br)cccc12)N[C@@H]1C(=O)NC[C@H]1O` [Compound 70] was under 0.25 µM; that for `O=C(CCc1c(-c2ccc(F)cc2)[nH]c2c(Cl)cccc12)N[C@H]1CCNC1=O` [Compound 72] was under 0.25 µM.
Take `O=C(CCc1c(-c2ccc(F)cc2)[nH]c2c(Cl)cccc12)N[C@@H]1C(=O)NC[C@H]1O` [Compound 73]: the IC50 was under 0.25 µM.
Take `O=C(CCc1c(-c2ccc(F)cc2)[nH]c2c(F)cccc12)N[C@H]1CCNC1=O` [Compound 75]: the half-maximal inhibitory concentration (IC50) is under 0.25 µM.
The value for `O=C(CCc1c(-c2ccc(F)cc2)[nH]c2c(F)cccc12)N[C@@H]1C(=O)NC[C@H]1O` [Compound 76] was under 0.25 µM; that for `O=C(CCc1c(-c2ccc(F)cc2)[nH]c2c(F)ccc(F)c12)N[C@H]1CCNC1=O` [Compound 78] was over 1 µM; that for `O=C(CCc1c(-c2ccccc2)[nH]c2c(F)c(F)c(F)cc12)N[C@@H]1C(=O)NC[C@H]1O` [Compound 80] was under 0.25 µM.
With `O=C(CCc1c(-c2ccccc2)[nH]c2cc(F)c(F)cc12)N[C@@H]1C(=O)NC[C@H]1O` [Compound 82], the IC50 is under 0.25 µM.
